Data taken from ChEMBL document CHEMBL5579851, “Synthesis and antifungal evaluation of novel triazole derivatives bearing a pyrazole-methoxyl moiety” (Eur J Med Chem, 2024).
Converted amounts (≈) assume the structure as drawn. The source made the active and inactive calls. No cut-off for these calls is given here.

Columns and labels:
[Candida] auris [1] = Antifungal activity against fluconazole-resistant Candida auris 891 assessed as inhibition of fungal growth incubated for 48 hrs by CLSI based broth microdilution assay; format: functional; conditions: Candidozyma auris
Saccharomyces cerevisiae [2] = assay: Antifungal activity against recombinant Saccharomyces cerevisiae Y2716 overexpressing CpErg11 Y132F mutant/ CpCpr assessed as inhibition of fungal growth incubated for 48 hrs by CLSI based broth microdilution assay; format: functional
Candida albicans [3] = assay: Antibiofilm activity against Candida albicans SC5314 assessed as increase in matured biofilm distruption at 64 ug/ml incubated for 24 hrs by XTT assay relative to control; format: functional; conditions: dose 64 µg/ml
Saccharomyces cerevisiae [4] = assay: Antifungal activity against recombinant Saccharomyces cerevisiae Y2462 overexpressing ScErg11/ScNcp1 assessed as inhibition of fungal growth incubated for 48 hrs by CLSI based broth microdilution assay; format: functional
[Candida] auris [5] = Antifungal activity against fluconazole-resistant Candida auris 918 assessed as inhibition of fungal growth incubated for 48 hrs by CLSI based broth microdilution assay; format: functional; conditions: Candidozyma auris
Cryptococcus neoformans = assay: Antifungal activity against Cryptococcus neoformans 32609 assessed as inhibition of fungal growth at 0.125 ug/ml measured up to 48 hrs by TECAN plate reader analysis; format: functional, organism-based; conditions: dose 0.125 µg/ml
[6] = target: T1, Lanosterol 14-alpha demethylase (Candida albicans (strain SC5314 / ATCC MYA-2876) (Yeast), UniProt P10613); assay: Inhibition of CYP51 in Candida albicans SC5314 assessed as 14alpha-methylfecosterol level at 0.0625 ug/ml after 8 hrs by GC-MS analysis relative to control; set-up: scale not given: the % may be the effect or the level left; conditions: at 0.0625 µg/mL
T1 sequence (P10613 whole entry): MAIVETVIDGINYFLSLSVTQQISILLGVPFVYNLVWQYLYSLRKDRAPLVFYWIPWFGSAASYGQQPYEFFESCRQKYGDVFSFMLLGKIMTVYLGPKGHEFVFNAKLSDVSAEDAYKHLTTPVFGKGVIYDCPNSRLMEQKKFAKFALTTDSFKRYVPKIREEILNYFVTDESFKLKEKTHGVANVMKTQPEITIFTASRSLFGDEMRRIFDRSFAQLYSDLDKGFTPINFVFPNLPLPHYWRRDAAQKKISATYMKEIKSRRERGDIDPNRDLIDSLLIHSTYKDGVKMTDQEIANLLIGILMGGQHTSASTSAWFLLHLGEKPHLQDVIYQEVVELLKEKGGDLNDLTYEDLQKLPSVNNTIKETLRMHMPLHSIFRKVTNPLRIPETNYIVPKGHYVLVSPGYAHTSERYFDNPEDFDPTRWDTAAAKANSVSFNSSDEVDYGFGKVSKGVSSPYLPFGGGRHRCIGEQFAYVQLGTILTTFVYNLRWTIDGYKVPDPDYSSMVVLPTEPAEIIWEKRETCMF

[7] = Cytotoxicity against HUVEC cells assessed as cell viability at 128 ug/ml incubated for 24 hrs by CCK-8 assay relative to control; format: toxicity, cell-based; conditions: human, at 128 µg/mL, read-out: Activity
[8] = target: T1, Lanosterol 14-alpha demethylase; assay: Inhibition of CYP51 in Candida albicans SC5314 assessed as ergosterol level at 0.0625 ug/ml after 8 hrs by GC-MS analysis (reference value: 86.2 %); set-up: scale not given: the % may be the effect or the level left; conditions: at 0.0625 µg/mL
Candida albicans [9] = assay: Antifungal activity against Candida albicans SC5314 assessed as inhibition of hyphae length after 3 hrs by inverted microscopic analysis; format: functional, organism-based; conditions: dose 0.0625-1 µg/ml
[10] = target: T1, Lanosterol 14-alpha demethylase; assay: Inhibition of CYP51 in Candida albicans SC5314 assessed as lanosterol level at 0.0625 ug/ml after 8 hrs by GC-MS analysis (reference value: 5.9 %); set-up: scale not given: the % may be the effect or the level left; conditions: at 0.0625 µg/mL
Candida albicans [11] = assay: Antifungal activity against fluconazole-resistant Candida albicans 901 assessed as inhibition of fungal growth incubated for 48 hrs by CLSI based broth microdilution assay; format: functional

C[C@@H](OCc1ccn(Cc2ccc(Cl)cc2)n1)[C@](O)(Cn1cncn1)c1ccc(F)cc1F showed an MIC ([Candida] auris [1]) of 8 µg/mL (≈ 16.9 µM), an MIC (Saccharomyces cerevisiae [2]) of 0.016 µg/mL and an Activity (Candida albicans [3]) of 57.3%. The MIC (Saccharomyces cerevisiae [4]) was 0.0313 µg/mL, the MIC ([Candida] auris [5]) was 8 µg/mL (≈ 16.9 µM) and the inhibition (Cryptococcus neoformans) was “Active”. The Activity [6] was ~ 20%, the viability at 24 h, 128 ug/ml [7] was 64.5% and the Activity [8] was 0%. The inhibition (Candida albicans [9]) was “Dose-Dependent Effect”, the Activity [10] was over 25% and the MIC (Candida albicans [11]) was 16 µg/mL (≈ 33.8 µM).
